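Cells were grown in 96-well plates and exposed to each compound for 48 hours at five concentrations; endpoints were interpolated linearly between bracketing concentrations, or set to the highest concentration if not reached. At the GI50, growth is halved.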 Active and inactive are the calls of the source. No stated cut-off is given here; in the data, active = GI50 up to about 1.1 µM and inactive = higher.
Tests used:
Assay in all cases: NCI anticancer screen, dose series, 48 h
[1] = test system: SR
[2] = test system: A549
[3] = test system: NCI-H23
[4] = test system: HT-29
[5] = test system: SF-268
[6] = test system: SN12C
[7] = test system: SW-620
[8] = test system: IGROV-1
[9] = test system: HOP-62
[10] = test system: U-251
[11] = test system: UACC-257
[12] = test system: SK-MEL-28
[13] = test system: KM12
[14] = test system: RXF 393
[15] = test system: M14
[16] = test system: OVCAR-3
[17] = test system: SK-OV-3
[18] = test system: RPMI-8226

Measured: GI50

BrC1(Br)C2/C=C\CCCCC21 (stereo not drawn)
inactive: [1] > 100 µM | [2] > 100 µM | [3] > 100 µM | [4] > 100 µM | [5] > 100 µM | [6] > 100 µM | [7] > 100 µM | [8] > 100 µM | [9] > 100 µM | [10] > 100 µM | [11] > 100 µM | [12] > 100 µM | [13] > 100 µM | [14] > 100 µM

NCCSc1nc(N)c2ncn(C3OC(CO)C(O)C3O)c2n1 (stereo not drawn)
inactive: [1] > 100 µM | [2] > 100 µM | [15] > 100 µM | [3] > 100 µM | [4] > 100 µM | [5] > 100 µM | [6] > 100 µM | [7] > 100 µM | [8] > 100 µM | [9] > 100 µM | [10] > 100 µM | [11] > 100 µM | [16] > 100 µM | [12] > 100 µM | [13] > 100 µM | [17] > 100 µM | [18] > 100 µM

CC1(c2ccc(F)cc2)C2C(=O)NC(=O)C1C(=O)NC2=O (stereo not drawn)
inactive: [2] > 100 µM | [15] > 100 µM | [3] > 100 µM | [4] > 100 µM | [5] > 100 µM | [6] > 100 µM | [7] > 100 µM | [8] > 100 µM | [11] > 100 µM | [16] > 100 µM | [12] > 100 µM | [13] > 100 µM | [14] > 100 µM | [17] > 100 µM | [18] > 100 µM

CCc1cccc(C(C)CC)c1NC(=O)C(=O)Cc1nc2ccccc2o1 (stereo not drawn)
inactive: [2] > 50 µM | [15] > 50 µM | [3] > 50 µM | [4] > 50 µM | [5] > 50 µM | [6] > 50 µM | [7] > 50 µM | [8] > 50 µM | [9] > 50 µM | [10] > 50 µM | [11] > 50 µM | [16] > 50 µM | [12] > 50 µM | [13] > 50 µM | [14] > 50 µM | [17] > 50 µM | [18] > 50 µM

O=[N+]([O-])c1cccc(C2=NOC3C4CCC(C4)C23)c1 (stereo not drawn)
inactive: [1] > 100 µM | [2] > 100 µM | [15] > 100 µM | [3] > 100 µM | [4] > 100 µM | [5] > 100 µM | [6] > 100 µM | [7] 22.3 µM | [8] > 100 µM | [9] > 100 µM | [10] > 100 µM | [11] > 100 µM | [16] > 100 µM | [12] > 100 µM | [13] > 100 µM | [17] > 100 µM | [18] > 100 µM

CCC1CN2CCc3c([nH]c4ccccc34)C2C[C@@H]1CC(=O)N(C)C (stereo partly drawn)
inactive: [1] 78.7 µM | [2] > 100 µM | [15] > 100 µM | [3] > 100 µM | [4] > 100 µM | [5] > 100 µM | [6] > 100 µM | [7] > 100 µM | [8] > 100 µM | [9] > 100 µM | [10] > 100 µM | [11] > 100 µM | [16] > 100 µM | [12] > 100 µM | [13] > 100 µM | [14] > 100 µM | [17] 39.6 µM

CCOc1ccc2c(c1)[n+]([O-])c(S(=O)(=O)c1ccc(C)cc1)c(N)[n+]2[O-]
inactive: [2] > 100 µM | [15] > 100 µM | [3] > 100 µM | [4] > 100 µM | [5] > 100 µM | [7] > 100 µM | [8] > 100 µM | [9] > 100 µM | [10] > 100 µM | [11] > 100 µM | [16] > 100 µM | [12] > 100 µM | [13] > 100 µM | [17] > 100 µM | [18] > 100 µM

C#CCN(N=O)C(=O)NC(CCCCNC(=O)OCc1ccccc1)C(=O)OCc1ccccc1 (stereo not drawn)
inactive: [2] 76.2 µM | [15] 21.4 µM | [3] 67.6 µM | [4] 21.2 µM | [5] 47 µM | [6] 28.4 µM | [7] 23.3 µM | [8] > 100 µM | [9] > 100 µM | [10] 27.9 µM | [11] 28.1 µM | [16] 36.1 µM | [12] 26.1 µM | [13] 77.3 µM | [14] 46.7 µM | [17] > 100 µM | [18] 18.7 µM

Cc1cc(N(CCC#N)CCC#N)ccc1/C=C1N=C(/C=C/c2ccccc2)N(c2ccc(S(N)(=O)=O)cc2)C\1=O
inactive: [1] > 100 µM | [2] > 100 µM | [15] > 100 µM | [3] > 100 µM | [4] > 100 µM | [5] > 100 µM | [6] > 100 µM | [7] > 100 µM | [8] > 100 µM | [9] > 100 µM | [10] > 100 µM | [11] > 100 µM | [16] > 100 µM | [12] > 100 µM | [13] > 100 µM | [17] > 100 µM | [18] 34.3 µM

CN(C)CCNC(=O)c1cccc2c1nc(-c1ccncc1)c1ccccc12
active: [2] 0.552 µM | [7] 1.11 µM | [8] 1.02 µM
inactive: [15] 4.83 µM | [3] 3.07 µM | [4] 3.32 µM | [5] 5.53 µM | [6] 1.58 µM | [9] 3.78 µM | [10] 2.34 µM | [11] 3.01 µM | [16] 5.35 µM | [12] 5.15 µM | [13] 5.28 µM | [14] 2.3 µM | [17] 5.71 µM

CC1=C(C(=O)Nc2cccc(Cl)c2)C(c2ccccc2F)C(C(=O)Nc2cccc(Cl)c2)=C(C)N1
inactive: [2] 7.78 µM | [15] 5.33 µM | [3] 12.2 µM | [4] 5.43 µM | [5] 11.8 µM | [6] 11 µM | [7] 21.6 µM | [8] 15 µM | [9] 15.8 µM | [10] 12.6 µM | [11] 10.2 µM | [16] 10.8 µM | [12] 10.6 µM | [13] 7.55 µM | [14] 7.24 µM | [17] 21.5 µM | [18] 2.77 µM

CC1=NN(C(=O)Cc2ccccc2)C(=O)/C1=C\c1ccco1
inactive: [1] > 100 µM | [2] > 100 µM | [15] > 100 µM | [3] > 100 µM | [4] > 100 µM | [5] > 100 µM | [6] > 100 µM | [7] > 100 µM | [9] > 100 µM | [11] > 100 µM | [16] > 100 µM | [12] > 100 µM | [13] > 100 µM | [18] > 100 µM

CC1=NN(c2ccccc2)C(=O)C1=C1SCCS1
inactive: [2] > 70 µM | [15] > 79.4 µM | [3] > 100 µM | [4] > 74.5 µM | [5] > 94.6 µM | [6] > 83 µM | [7] > 38.3 µM | [8] 82.4 µM | [9] > 100 µM | [10] > 53.2 µM | [11] > 74.6 µM | [16] 34.9 µM | [12] > 100 µM | [13] > 88.9 µM | [14] 37 µM | [17] > 100 µM | [18] > 25.8 µM

CCOP(=O)(OCC)C(C(=O)OC)C(=O)C(=O)Nc1c(C)cc(Br)cc1C (stereo not drawn)
inactive: [2] > 100 µM | [15] > 100 µM | [3] > 100 µM | [4] > 100 µM | [5] > 100 µM | [6] > 100 µM | [7] > 100 µM | [8] > 100 µM | [9] > 100 µM | [10] > 100 µM | [11] > 100 µM | [16] > 100 µM | [12] > 100 µM | [13] > 100 µM | [14] > 100 µM | [17] > 100 µM | [18] > 100 µM

COCCOCOC(CCCCO)c1cc(C)c(O[Si](C)(C)C(C)(C)C)c(C)c1 (stereo not drawn)
inactive: [2] 3.68 µM | [15] 10.3 µM | [3] 5.55 µM | [5] 6.05 µM | [6] 2.69 µM | [7] 7.31 µM | [8] 12.2 µM | [9] 10.8 µM | [10] 10.8 µM | [11] 3.01 µM | [16] 5.83 µM | [12] 12.3 µM | [13] 4.59 µM | [14] 2.26 µM | [17] 17.6 µM | [18] 2.08 µM

O=C(O)CNS(=O)(=O)c1ccc(NCc2ccccc2)cc1
inactive: [2] > 100 µM | [15] > 100 µM | [3] > 100 µM | [4] > 100 µM | [5] > 100 µM | [6] > 100 µM | [7] > 100 µM | [8] > 100 µM | [9] > 100 µM | [10] > 100 µM | [11] > 100 µM | [12] > 100 µM | [14] > 100 µM | [17] > 100 µM | [18] > 100 µM

COc1ccc(C(=O)Cc2c(C(=O)c3ccccc3)c3ccccc3n2C(=O)c2ccccc2)cc1
inactive: [1] 23.8 µM | [2] 35.7 µM | [15] > 100 µM | [3] 50.2 µM | [4] > 100 µM | [5] > 100 µM | [7] 29.8 µM | [8] > 100 µM | [9] > 100 µM | [10] 78.2 µM | [11] > 100 µM | [16] 37.7 µM | [12] > 100 µM | [13] 53.8 µM | [18] 11.9 µM
